We go through 13 compounds from patent US12338256B2, “Aza-tetracyclic oxazepine compounds and uses thereof” (Genentech, Inc., priority 2022, dated 2025).

Format in all cases: cell-based
Test [1] concerns AsPC-1 (homozygous mutant KRAS G12D human pancreatic cell line). Nature of the test: KRAS 3D-Cell Proliferation Assay, AsPC-1 (Example 503). To be noted: Homo sapiens, ASPC1, 168 h, AsPC-1 3D culture, 7 days, CellTiter-Glo 3D; read-out: Prolif AsPC-1 3D ATP IC50. The gist of the method:
(§1)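 KRAS G12D homozygous pancreatic lines and KRAS wild-type lung lines grown as 3D cultures in ultra-low-attachment wells in RPMI-1640/10% FBS, dosed after overnight with compound dilution series (0.3% DMSO final) for 7 days at 37 °C. ATP read by CellTiter-Glo 3D luminescence; IC50 from 4-parameter Hill fit, normalized to DMSO and 1 μM staurosporine.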

The test system of test [2] is HPAC (homozygous mutant KRAS G12D human pancreatic cell line). Description: KRAS 3D-Cell Proliferation Assay, HPAC (Example 503). The settings on record: Homo sapiens, HPAC, 168 h, HPAC 3D culture, 7 days, CellTiter-Glo 3D; read-out: Prolif HPAC 3D ATP IC50. The gist of the method: as §1
On the technique in general: Cellular ATP, detected with luciferase, serves as a proxy for viable cell number.

The subject of test [3] is PC-9 (KRAS wild type human lung adenocarcinoma cell line). Nature of the test: KRAS 3D-Cell Proliferation Assay, PC-9 (Example 503). To be noted: 168 h, PC-9 3D culture, 7 days, CellTiter-Glo 3D, read-out: Prolif PC9 3D ATP IC50. The method, boiled down:
as §1

Test [4] relates to H1975 (KRAS wild type human lung adenocarcinoma cell line). Nature of the test: KRAS 3D-Cell Proliferation Assay, H1975 (Example 503). The settings on record: Homo sapiens, NCI-H1975, 168 h, H1975 3D culture, 7 days, CellTiter-Glo 3D; read-out: Prolif H1975 3D ATP IC50. The method, boiled down: as §1

As usually defined, the IC50 is the concentration at which inhibition is half-maximal.

For `C#Cc1cccc2cc(O)cc(-c3nc4c5c(ncnc5c3F)N3C[C@H]5CC[C@H](N5)[C@H]3[C@H](C)O4)c12` [Compound 54, 5-ethynyl-4-((5S,5aS,6S,9R)-1-fluoro-5-methyl-5a,6,7,8,9,10-hexahydro-5H-4-oxa-3,10a,11,13,14-pentaaza-6,9-methanonaphtho[1,8-ab]heptalen-2-yl)naphthalen-2-ol], the IC50 is 2090 nM in test [1], 3420 nM in test [2], at least 20000 nM in test [3] and 20000 nM in test [4].
For `Cc1cc(N)nc(-c2nc3c4c(nc(OC[C@@]56CCCN5CC5(CC5(F)F)C6)nc4c2F)N2C[C@H]4CC[C@H](N4)[C@H]2[C@H](C)O3)c1C(F)(F)F` (stereo partly drawn) [Compound 47, 6-((5S,5aS,6S,9R)-12-(((7a′S)-2,2-difluorodihydro-1′H,3′H-spiro[cyclopropane-1,2′-pyrrolizin]-7a′(5′H)-yl)methoxy)-1-fluoro-5-methyl-5a,6,7,8,9,10-hexahydro-5H-4-oxa-3,10a,11,13,14-pentaaza[6,9]methanonaphtho[1,8-ab]heptalen-2-yl)-4-methyl-5-(trifluoromethyl)pyridin-2-amine], the IC50 was found to be 3.97 nM in test [1], 2.95 nM in test [2], 8840 nM in test [3] and 1530 nM in test [4].
For `Cc1cc(N)c(F)c(-c2nc3c4c(nc(OC[C@@]56CCCN5C[C@H](F)C6)nc4c2F)N2C[C@H]4CC[C@H](N4)[C@H]2[C@H](C)O3)c1C(F)(F)F` [Compound 34, 2-Fluoro-3-((5S,5aS,6S,9R)-1-fluoro-12-(((2R,7aS)-2-fluorotetrahydro-1H-pyrrolizin-7a(5H)-yl)methoxy)-5-methyl-5a,6,7,8,9,10-hexahydro-5H-4-oxa-3,10a,11,13,14-pentaaza-6,9-methanonaphtho[1,8-ab]heptalen-2-yl)-5-methyl-4-(trifluoromethyl)aniline], the concentration for half-maximal inhibition (IC50) worked out at 0.692 nM in test [1], 0.54 nM in test [2], 6950 nM in test [3] and 340 nM in test [4].
Turning to `C#Cc1c(F)ccc2cc(O)cc(-c3nc4c5c(nc(OC[C@@]67CCCN6C[C@H](F)C7)nc5c3F)N3C[C@H]5CC[C@H](N5)[C@H]3[C@H](C)O4)c12` [Compound 7, 5-Ethynyl-6-fluoro-4-((5S,5aS,6S,9R)-1-fluoro-12-(((2R,7aS)-2-fluorotetrahydro-1H-pyrrolizin-7a(5H)-yl)methoxy)-5-methyl-5a,6,7,8,9,10-hexahydro-5H-4-oxa-3,10a,11,13,14-pentaaza-6,9-methanonaphtho[1,8-ab]heptalen-2-yl)naphthalen-2-ol], the IC50 was 1.92 nM in test [1], 1.36 nM in test [2], 10200 nM in test [3] and 130 nM in test [4].
Taken in the same sequence, the figures for `C[C@@H]1Oc2nc(-c3cccc4cccc(Cl)c34)c(F)c3nc(OC[C@@]45CCCN4C[C@H](F)C5)nc(c23)N2C[C@H]3CC[C@H](N3)[C@@H]12` [Compound 8, (5S,5aS,6S,9R)-2-(8-chloronaphthalen-1-yl)-1-fluoro-12-(((2R,7aS)-2-fluorotetrahydro-1H-pyrrolizin-7a(5H)-yl)methoxy)-5-methyl-5a,6,7,8,9,10-hexahydro-5H-4-oxa-3,10a,11,13,14-pentaaza-6,9-methanonaphtho[1,8-ab]heptalene] were 72 nM, 87.3 nM, 3920 nM and 4310 nM.
For the compound `C[C@@H]1Oc2nc(-c3cc(O)cc4ccccc34)c(F)c3nc(OC[C@]45CCN4CC(F)(F)C5)nc(c23)N2C[C@H]3CC[C@H](N3)[C@@H]12` [Compound 25, 4-((5S,5aS,6S,9R)-12-(((R)-3,3-difluoro-1-azabicyclo[3.2.0]heptan-5-yl)methoxy)-1-fluoro-5-methyl-5a,6,7,8,9,10-hexahydro-5H-4-oxa-3,10a,11,13,14-pentaaza-6,9-methanonaphtho[1,8-ab]heptalen-2-yl)naphthalen-2-ol], the IC50 in test [1] turned out to be 464 nM; in test [2], 78.8 nM; in test [3], 11000 nM; in test [4] it was 10700 nM.
Taken in the same sequence, the figures for `CCc1cccc2cc(O)cc(-c3nc4c5c(nc(OC[C@@]67CCCN6C[C@H](F)C7)nc5c3F)N3C[C@H]5CC[C@H](N5)[C@H]3[C@H](C)O4)c12` [Compound 10, 5-ethyl-4-((5S,5aS,6S,9R)-1-fluoro-12-(((2R,7aS)-2-fluorotetrahydro-1H-pyrrolizin-7a(5H)-yl)methoxy)-5-methyl-5a,6,7,8,9,10-hexahydro-5H-4-oxa-3,10a,11,13,14-pentaaza-6,9-methanonaphtho[1,8-ab]heptalen-2-yl)naphthalen-2-ol] were 4.93 nM, 5.96 nM, 6670 nM and 2270 nM.
For `CCc1cccc2cc(O)cc(-c3nc4c5c(nc(OC[C@@]67CCCN6C[C@H](F)C7)nc5c3F)N3C[C@H]5CC[C@H](N5)[C@H]3CO4)c12` [Compound 5, 5-ethyl-4-((5aS,6S,9R)-1-fluoro-12-(((2R,7aS)-2-fluorotetrahydro-1H-pyrrolizin-7a(5H)-yl)methoxy)-5a,6,7,8,9,10-hexahydro-5H-4-oxa-3,10a,11,13,14-pentaaza-6,9-methanonaphtho[1,8-ab]heptalen-2-yl)naphthalen-2-ol], the IC50 was found to be 6.28 nM in test [1], 7.06 nM in test [2], 9050 nM in test [3] and 1400 nM in test [4].
For `Cc1cc(N)c(F)c(-c2nc3c4c(nc(OC[C@@]56CCCN5C[C@H](F)C6)nc4c2F)N2C[C@H]4CC[C@H](N4)[C@H]2CO3)c1C(F)(F)F` [Compound 36, 2-fluoro-3-((5aS,6S,9R)-1-fluoro-12-(((2R,7aS)-2-fluorotetrahydro-1H-pyrrolizin-7a(5H)-yl)methoxy)-5a,6,7,8,9,10-hexahydro-5H-4-oxa-3,10a,11,13,14-pentaaza-6,9-methanonaphtho[1,8-ab]heptalen-2-yl)-5-methyl-4-(trifluoromethyl)aniline], the IC50 in test [1] was determined as 52.4 nM; in test [2], 31.4 nM; in test [3], 6110 nM; in test [4], 1130 nM.
Taken in the same sequence, the figures for `Cc1c(F)c(N)cc(-c2nc3c4c(nc(OC[C@@]56CCCN5C[C@H](F)C6)nc4c2F)N2C[C@H]4CC[C@H](N4)[C@H]2[C@H](C)O3)c1C(F)(F)F` [Compound 6, 2-Fluoro-5-((5S,5aS,6S,9R)-1-fluoro-12-(((2R,7aS)-2-fluorotetrahydro-1H-pyrrolizin-7a(5H)-yl)methoxy)-5-methyl-5a,6,7,8,9,10-hexahydro-5H-4-oxa-3,10a,11,13,14-pentaaza-6,9-methanonaphtho[1,8-ab]heptalen-2-yl)-3-methyl-4-(trifluoromethyl)aniline] were 0.561 nM, 0.247 nM, 4210 nM and 692 nM.
Taken in the same sequence, the figures for `C#Cc1cccc2cc(O)cc(-c3nc4c5c(nc(OC[C@@]67CCCN6C[C@H](F)C7)nc5c3F)N3C[C@H]5CC[C@H](N5)[C@H]3[C@H](C)O4)c12` [Compound 11, 5-ethynyl-4-((5S,5aS,6S,9R)-1-fluoro-12-(((2R,7aS)-2-fluorotetrahydro-1H-pyrrolizin-7a(5H)-yl)methoxy)-5-methyl-5a,6,7,8,9,10-hexahydro-5H-4-oxa-3,10a,11,13,14-pentaaza-6,9-methanonaphtho[1,8-ab]heptalen-2-yl)naphthalen-2-ol] were 2.3 nM, 2.41 nM, at least 20000 nM and 169 nM.
In the case of `Cc1c(F)c(N)cc(-c2nc3c4c(nc(OC[C@H]5CC(F)(F)CN5C)nc4c2F)N2C[C@H]4CC[C@H](N4)[C@H]2[C@H](C)O3)c1C(F)(F)F` [Compound 66, 5-((5S,5aS,6S,9R)-12-(((R)-4,4-difluoro-1-methylpyrrolidin-2-yl)methoxy)-1-fluoro-5-methyl-5a,6,7,8,9,10-hexahydro-5H-4-oxa-3,10a,11,13,14-pentaaza-6,9-methanonaphtho[1,8-ab]heptalen-2-yl)-2-fluoro-3-methyl-4-(trifluoromethyl)aniline], the half-inhibitory concentration (IC50) in test [1] was found to be 41.4 nM; in test [2], 27.6 nM; in test [3], 4780 nM; in test [4], 7150 nM.
The corresponding values for `C[C@@H]1Oc2nc(-c3nc(N)c(F)cc3C(F)(F)F)c(F)c3nc(OC[C@@]45CCCN4CC4(CC4(F)F)C5)nc(c23)N2C[C@H]3CC[C@H](N3)[C@@H]12` (stereo partly drawn) [Compound 86, 6-((5S,5aS,6S,9R)-12-(((7a′S)-2,2-difluorodihydro-1′H,3′H-spiro[cyclopropane-1,2′-pyrrolizin]-7a′(5′H)-yl)methoxy)-1-fluoro-5-methyl-5a,6,7,8,9,10-hexahydro-5H-4-oxa-3,10a,11,13,14-pentaaza[6,9]methanonaphtho[1,8-ab]heptalen-2-yl)-3-fluoro-5-(trifluoromethyl)pyridin-2-amine] are 144 nM, 126 nM, 8750 nM and 5430 nM.
